# Values quoted from earlier work, collected in US20230414783A1, “Biliary Delivery Methods, Compositions and Kits for Use Therein” (AMBYS MEDICINES, INC., priority 2020, published 2023).
# Tested on: lysyl oxidase (LOX) family enzymes
# Details: subcutaneous injection or intravenous infusion; human subjects
smiles,measurement,value
Cc1cc(F)c(C(=O)Nc2cccc(-c3nncn3C(C)C)n2)cc1-n1cnc(C2CC2)c1 [selonsertib],clinical efficacy,did not demonstrate clinical efficacy
